Results as given in the supplement of paper PMC10307832.

These cell lines were tested with CC(C)(C)c1nc(-c2cccc(NS(=O)(=O)c3c(F)cccc3F)c2F)c(-c2ccnc(N)n2)s1 [Dabrafenib] + C[C@]1(O)C[C@@H](c2nc(-c3ccc4ccc(-c5ccccc5)nc4c3)c3c(N)nccn32)C1 [Linsitinib] (partner 1 µM) (assay: relative viability (nuclei count vs DMSO), 5 days (fraction); higher = more cells survive). Settings: first compound 0.003 µM.
In short: (§1)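 Each reported value is a median over duplicate plates. It expresses relative viability: treated-well nuclei count divided by vehicle-well nuclei count. Lung cancer cell lines in 1536-well plates were dosed by pin tool a day after seeding, alone with one drug or with a fixed anchor-drug dose plus five library-drug doses (not always all listed) in √10 steps, and nuclei were counted after 5 days.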

Cell Line	relative viability
NCI-H2085	0.827
IA-LM	0.443
NCI-H2228	0.579
NCI-H1703	0.335
LCLC-103H	1.04
NCI-H1299	0.941
Calu-6	0.939
NCI-H1793	0.832
EBC-1	0.854

Same assay, conditions: first compound 0.009487 µM

Cell Line	relative viability
ABC-1	0.81
CAL-12T	0.901
NCI-H1944	1.28
NCI-H2085	0.857
IA-LM	0.575
NCI-H2228	0.839
NCI-H441	0.48
NCI-H1703	1.12
LCLC-103H	1.08
NCI-H1299	0.959
A549	0.549
Calu-6	0.951
NCI-H1793	1.53
EBC-1	0.867
NCI-H1395	1.07

Same assay, conditions: first compound 0.03 µM

Cell Line	relative viability
ABC-1	0.841
CAL-12T	0.786
NCI-H1944	1.06
NCI-H2085	0.944
IA-LM	0.547
NCI-H2228	0.524
NCI-H441	0.54
NCI-H1703	0.75
LCLC-103H	0.84
NCI-H1299	0.798
A549	0.374
Calu-6	0.72
NCI-H1793	0.702
EBC-1	0.679
NCI-H1395	1.05

Same assay, conditions: first compound 0.09487 µM

Cell Line	relative viability
ABC-1	0.892
CAL-12T	0.777
NCI-H1944	1.18
NCI-H2085	0.908
IA-LM	0.283
NCI-H2228	0.782
NCI-H441	0.32
NCI-H1703	0.834
LCLC-103H	1.13
NCI-H1299	0.743
A549	0.697
Calu-6	0.737
NCI-H1793	0.781
EBC-1	0.378
NCI-H1395	1.07

Same assay, conditions: first compound 0.3 µM

Cell Line	relative viability
ABC-1	0.861
CAL-12T	0.963
NCI-H1944	1.14
NCI-H2085	0.845
IA-LM	0.424
NCI-H2228	0.81
NCI-H441	0.383
NCI-H1703	1.18
LCLC-103H	1.09
NCI-H1299	0.625
A549	0.568
Calu-6	0.675
NCI-H1793	0.914
EBC-1	0.309
NCI-H1395	0.854

What follows are cell lines tested with CC(C)(C)c1nc(-c2cccc(NS(=O)(=O)c3c(F)cccc3F)c2F)c(-c2ccnc(N)n2)s1 [Dabrafenib] + CS(=O)(=O)CCNCc1ccc(-c2ccc3ncnc(Nc4ccc(OCc5cccc(F)c5)c(Cl)c4)c3c2)o1 [Lapatinib] (partner 2 µM) in the same assay as above. Settings: first compound 0.003 µM.
In short: as §1

Cell Line	relative viability
ABC-1	1.14
CAL-12T	0.709
NCI-H1944	0.835
NCI-H2085	0.694
IA-LM	0.774
NCI-H2228	0.856
NCI-H2170	0.263
NCI-H1703	1.2
NCI-H1299	1.01
A549	0.899
NCI-H1650	0.632
Calu-6	1.18
NCI-H1793	0.522

Same assay, conditions: first compound 0.009487 µM

Cell Line	relative viability
ABC-1	1.24
CAL-12T	0.74
NCI-H1944	0.924
NCI-H2085	0.821
IA-LM	0.7
NCI-H2228	1.2
NCI-H2170	0.265
NCI-H1703	1.6
NCI-H1299	0.952
A549	1.06
NCI-H1650	1.12
Calu-6	1.03
NCI-H1793	1
EBC-1	0.233
NCI-H1395	1.02

Same assay, conditions: first compound 0.03 µM

Cell Line	relative viability
ABC-1	1.3
CAL-12T	0.683
NCI-H1944	0.613
NCI-H2085	0.58
IA-LM	0.835
NCI-H2228	1.01
NCI-H2170	0.268
NCI-H1703	0.938
NCI-H1299	0.957
A549	1.07
NCI-H1650	0.639
Calu-6	0.911
NCI-H1793	0.598
EBC-1	0.223
NCI-H1395	0.821

Same assay, conditions: first compound 0.09487 µM

Cell Line	relative viability
ABC-1	1.2
CAL-12T	0.639
NCI-H1944	0.898
NCI-H2085	0.74
IA-LM	0.689
NCI-H2228	1.01
NCI-H2170	0.291
NCI-H1703	0.896
NCI-H1299	0.932
A549	1
NCI-H1650	0.953
Calu-6	0.848
NCI-H1793	0.741
EBC-1	0.23
NCI-H1395	0.85

Same assay, conditions: first compound 0.3 µM

Cell Line	relative viability
ABC-1	1.05
CAL-12T	0.789
NCI-H1944	0.788
NCI-H2085	0.784
IA-LM	0.464
NCI-H2228	1.14
NCI-H2170	0.311
NCI-H1703	1.09
NCI-H1299	0.824
A549	1.04
NCI-H1650	1.11
Calu-6	0.886
NCI-H1793	0.612
EBC-1	0.274
NCI-H1395	0.973
